# According to patent publication US8802597B2, “Herbicidal pyrimidines” (E I du Pont de Nemours and Company, priority 2003, dated 2014):
# Legend:
# Test in all cases: Test C pre/postemergence
# Assay type in all cases: in vivo
# [1] = tested on: Surinam grass (Brachiaria decumbens); conditions: for Surinam Grass plant response rating: scale 0 to 100 (0 no effect, 100 complete control)
# In short: (§1)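 Seeds sown and sprayed preemergence with test compound in non-phytotoxic solvent containing surfactant; postemergence sprays, same formulation, went onto plants 2 to 18 cm tall (1- to 4-leaf stage). Plants held in greenhouse 12 to 14 days, then visually rated against untreated controls on a 0–100 scale (0 no effect, 100 complete control).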
# [2] = tested on: giant foxtail (Setaria faberii); conditions: for Foxtail, Giant plant response rating: scale 0 to 100 (0 no effect, 100 complete control)
# In short: as §1
# [3] = tested on: lambsquarters (Chenopodium album); conditions: for Lambsquarters plant response rating: scale 0 to 100 (0 no effect, 100 complete control)
# In short: as §1
# [4] = tested on: velvetleaf (Abutilon theophrasti); conditions: for Velvetleaf plant response rating: scale 0 to 100 (0 no effect, 100 complete control)
# In short: as §1
# [5] = tested on: woolly cupgrass (Eriochloa villosa); conditions: for Cupgrass, Woolly plant response rating: scale 0 to 100 (0 no effect, 100 complete control)
# In short: as §1
# [6] = tested on: yellow nutsedge (Cyperus esculentus); conditions: for Nutsedge, Yellow plant response rating: scale 0 to 100 (0 no effect, 100 complete control)
# In short: as §1
# [7] = tested on: common ragweed (Ambrosia elatior); conditions: for Ragweed plant response rating: scale 0 to 100 (0 no effect, 100 complete control)
# In short: as §1
# [8] = tested on: morningglory (Ipomoea coccinea); conditions: for Morningglory plant response rating: scale 0 to 100 (0 no effect, 100 complete control)
# In short: as §1
# [9] = tested on: bermudagrass (Cynodon dactylon)
# In short: as §1
# [10] = tested on: goosegrass (Eleusine indica); conditions: for Goosegrass plant response rating: scale 0 to 100 (0 no effect, 100 complete control)
# In short: as §1
# [11] = tested on: eastern black nightshade (Solanum ptycanthum); conditions: Preemergence
# In short: as §1
# soybean (Glycine max) = conditions: for Soybean plant response rating: scale 0 to 100 (0 no effect, 100 complete control)
# In short: as §1
# [12] = Postemergence, 250 g ai/ha, scale 0 to 100
# [13] = Postemergence, 500 g ai/ha, scale 0 to 100
# [14] = Preemergence, 125 g ai/ha, scale 0 to 100
# [15] = Preemergence, 250 g ai/ha, scale 0 to 100
# [16] = Preemergence, 500 g ai/ha, scale 0 to 100
# [17] = Preemergence, 62 g ai/ha, scale 0 to 100, 0 no effect, 100 complete control
# [18] = Preemergence, 31 g ai/ha, scale 0 to 100, 0 no effect, 100 complete control
# [19] = 62 g ai/ha, scale 0 to 100, 0 no effect, 100 complete control
compound,measurement,setting,value
COC(=O)CNc1nc(C2CC2)nc(C(=O)OC)c1Br [Compound 10],Surinam Grass plant response rating,"[1]; Postemergence, 62 g ai/ha",0
same,Surinam Grass plant response rating,"[1]; Postemergence, 125 g ai/ha",0
same,"Plant response rating, Surinam Grass",[1]; [12],0
same,"Plant response rating, Surinam Grass",[1]; [13],0
same,"Plant response rating, Surinam Grass",[1]; [14],0
same,"Plant response rating, Surinam Grass",[1]; [15],0
same,"Plant response rating, Surinam Grass",[1]; [16],0
same,"Foxtail, Giant plant response rating","[2]; Postemergence, 62 g ai/ha",0
same,"Foxtail, Giant plant response rating","[2]; Postemergence, 125 g ai/ha",0
same,"Plant response rating, Foxtail, Giant",[2]; [12],0
same,"Plant response rating, Foxtail, Giant",[2]; [13],0
same,"Plant response rating, Foxtail, Giant",[2]; [17],0
same,"Plant response rating, Foxtail, Giant",[2]; [14],0
same,"Plant response rating, Foxtail, Giant",[2]; [15],0
same,"Plant response rating, Foxtail, Giant",[2]; [16],0
same,Lambsquarters plant response rating,"[3]; Postemergence, 62 g ai/ha",60
same,Lambsquarters plant response rating,"[3]; Postemergence, 125 g ai/ha",80
same,"Plant response rating, Lambsquarters",[3]; [12],90
same,"Plant response rating, Lambsquarters",[3]; [13],100
same,"Plant response rating, Lambsquarters",[3]; [17],0
same,"Plant response rating, Lambsquarters",[3]; [14],50
same,"Plant response rating, Lambsquarters",[3]; [15],65
same,"Plant response rating, Lambsquarters",[3]; [16],95
same,Velvetleaf plant response rating,"[4]; Postemergence, 62 g ai/ha",65
same,Velvetleaf plant response rating,"[4]; Postemergence, 125 g ai/ha",70
same,"Plant response rating, Velvetleaf",[4]; [12],80
same,"Plant response rating, Velvetleaf",[4]; [13],90
same,"Plant response rating, Velvetleaf",[4]; [17],0
same,"Plant response rating, Velvetleaf",[4]; [14],0
same,"Plant response rating, Velvetleaf",[4]; [15],0
same,"Plant response rating, Velvetleaf",[4]; [16],60
same,"Cupgrass, Woolly plant response rating","[5]; Postemergence, 62 g ai/ha",0
same,"Cupgrass, Woolly plant response rating","[5]; Postemergence, 125 g ai/ha",0
same,"Plant response rating, Cupgrass, Woolly",[5]; [12],0
same,"Plant response rating, Cupgrass, Woolly",[5]; [13],0
same,"Plant response rating, Cupgrass, Woolly",[5]; [17],0
same,"Plant response rating, Cupgrass, Woolly",[5]; [14],0
same,"Plant response rating, Cupgrass, Woolly",[5]; [15],0
same,"Plant response rating, Cupgrass, Woolly",[5]; [16],0
same,"Nutsedge, Yellow plant response rating","[6]; Postemergence, 62 g ai/ha",0
same,"Nutsedge, Yellow plant response rating","[6]; Postemergence, 125 g ai/ha",0
same,"Plant response rating, Nutsedge, Yellow",[6]; [12],0
same,"Plant response rating, Nutsedge, Yellow",[6]; [13],0
same,"Plant response rating, Nutsedge, Yellow",[6]; [17],0
same,"Plant response rating, Nutsedge, Yellow",[6]; [14],0
same,Ragweed plant response rating,"[7]; Postemergence, 62 g ai/ha",45
same,Ragweed plant response rating,"[7]; Postemergence, 125 g ai/ha",65
same,"Plant response rating, Ragweed",[7]; [12],80
same,"Plant response rating, Ragweed",[7]; [13],90
same,"Plant response rating, Ragweed",[7]; [17],0
same,"Plant response rating, Ragweed",[7]; [14],0
same,"Plant response rating, Ragweed",[7]; [15],55
same,"Plant response rating, Ragweed",[7]; [16],85
same,Morningglory plant response rating,"[8]; Postemergence, 62 g ai/ha",70
same,Morningglory plant response rating,"[8]; Postemergence, 125 g ai/ha",85
same,"Plant response rating, Morningglory",[8]; [12],95
same,"Plant response rating, Morningglory",[8]; [13],95
same,"Plant response rating, Morningglory",[8]; [17],0
same,"Plant response rating, Morningglory",[8]; [14],0
same,"Plant response rating, Morningglory",[8]; [15],0
same,"Plant response rating, Morningglory",[8]; [16],100
same,Bermudagrass plant response rating,"[9]; Postemergence, 62 g ai/ha, scale 0 to 100 (0 no effect, 100 complete control)",0
same,"Plant response rating, Bermudagrass",[9]; [12],0
same,"Plant response rating, Bermudagrass",[9]; [13],0
same,"Plant response rating, Bermudagrass","[9]; Postemergence, 125 g ai/ha, scale 0 to 100",0
same,"Plant response rating, Bermudagrass",[9]; [17],0
same,"Plant response rating, Bermudagrass",[9]; [14],0
same,"Plant response rating, Bermudagrass",[9]; [15],0
same,"Plant response rating, Bermudagrass",[9]; [16],0
same,Goosegrass plant response rating,"[10]; Postemergence, 62 g ai/ha",0
same,Goosegrass plant response rating,"[10]; Postemergence, 125 g ai/ha",0
same,"Plant response rating, Goosegrass",[10]; [12],0
same,"Plant response rating, Goosegrass",[10]; [13],0
same,"Plant response rating, Goosegrass",[10]; [17],0
same,"Plant response rating, Goosegrass",[10]; [14],0
same,"Plant response rating, Goosegrass",[10]; [15],0
same,"Plant response rating, Goosegrass",[10]; [16],0
same,"Plant response rating, Nightshade","[11]; 250 g ai/ha, scale 0 to 100",20
same,"Plant response rating, Nightshade","[11]; 500 g ai/ha, scale 0 to 100",95
same,Soybean plant response rating,"soybean (Glycine max); Postemergence, 62 g ai/ha",70
same,Soybean plant response rating,"soybean (Glycine max); Postemergence, 125 g ai/ha",80
same,"Plant response rating, Soybean",soybean (Glycine max); [12],90
same,"Plant response rating, Soybean",soybean (Glycine max); [13],100
same,"Plant response rating, Soybean",soybean (Glycine max); [17],0
CCOC(=O)Cc1nc(C2CC2)nc(N)c1Br [Compound 12],"Plant response rating, Surinam Grass",[1]; [18],0
same,"Plant response rating, Surinam Grass",[1]; [14],0
same,"Plant response rating, Surinam Grass",[1]; [15],0
same,"Plant response rating, Foxtail, Giant",[2]; [18],0
same,"Plant response rating, Foxtail, Giant",[2]; [17],0
same,"Plant response rating, Foxtail, Giant",[2]; [14],0
same,"Plant response rating, Foxtail, Giant",[2]; [15],0
same,"Plant response rating, Lambsquarters",[3]; [18],0
same,"Plant response rating, Lambsquarters",[3]; [17],10
same,"Plant response rating, Lambsquarters",[3]; [14],40
same,"Plant response rating, Lambsquarters",[3]; [15],70
same,"Plant response rating, Velvetleaf",[4]; [18],0
same,"Plant response rating, Velvetleaf",[4]; [17],5
same,"Plant response rating, Velvetleaf",[4]; [14],50
same,"Plant response rating, Velvetleaf",[4]; [15],70
same,"Plant response rating, Cupgrass, Woolly",[5]; [18],0
same,"Plant response rating, Cupgrass, Woolly",[5]; [17],0
same,"Plant response rating, Cupgrass, Woolly",[5]; [14],10
same,"Plant response rating, Cupgrass, Woolly",[5]; [15],100
same,"Plant response rating, Nutsedge, Yellow",[6]; [18],0
same,"Plant response rating, Nutsedge, Yellow",[6]; [17],0
same,"Plant response rating, Nutsedge, Yellow",[6]; [14],0
same,"Plant response rating, Nutsedge, Yellow",[6]; [15],0
same,"Plant response rating, Ragweed",[7]; [17],10
same,"Plant response rating, Ragweed",[7]; [14],20
same,"Plant response rating, Ragweed",[7]; [15],85
same,"Plant response rating, Morningglory",[8]; [18],30
same,"Plant response rating, Morningglory",[8]; [17],60
same,"Plant response rating, Morningglory",[8]; [14],60
same,"Plant response rating, Morningglory",[8]; [15],90
same,"Plant response rating, Bermudagrass",[9]; [18],0
same,"Plant response rating, Bermudagrass",[9]; [17],0
same,"Plant response rating, Bermudagrass",[9]; [14],0
same,"Plant response rating, Bermudagrass",[9]; [15],20
same,"Plant response rating, Goosegrass",[10]; [18],0
same,"Plant response rating, Goosegrass",[10]; [17],0
same,"Plant response rating, Goosegrass",[10]; [14],0
same,"Plant response rating, Goosegrass",[10]; [15],0
same,"Plant response rating, Nightshade",[11]; [19],50
same,"Plant response rating, Nightshade","[11]; 125 g ai/ha, scale 0 to 100",60
same,"Plant response rating, Nightshade","[11]; 250 g ai/ha, scale 0 to 100",80
same,"Plant response rating, Soybean",soybean (Glycine max); [17],50
same,"Plant response rating, Soybean",soybean (Glycine max); [15],70
COC(=O)Cc1nc(C2CC2)nc(N)c1Br [Compound 13],"Plant response rating, Surinam Grass",[1]; [18],0
same,"Plant response rating, Surinam Grass",[1]; [17],0
same,"Plant response rating, Surinam Grass",[1]; [14],0
same,"Plant response rating, Surinam Grass",[1]; [15],10
same,"Plant response rating, Foxtail, Giant",[2]; [18],0
same,"Plant response rating, Foxtail, Giant",[2]; [17],0
same,"Plant response rating, Foxtail, Giant",[2]; [14],0
same,"Plant response rating, Foxtail, Giant",[2]; [15],5
same,"Plant response rating, Lambsquarters",[3]; [18],50
same,"Plant response rating, Lambsquarters",[3]; [17],85
same,"Plant response rating, Lambsquarters",[3]; [14],90
same,"Plant response rating, Lambsquarters",[3]; [15],90
same,"Plant response rating, Velvetleaf",[4]; [18],60
same,"Plant response rating, Velvetleaf",[4]; [17],60
same,"Plant response rating, Velvetleaf",[4]; [14],80
same,"Plant response rating, Velvetleaf",[4]; [15],90
same,"Plant response rating, Cupgrass, Woolly",[5]; [18],0
same,"Plant response rating, Cupgrass, Woolly",[5]; [17],0
same,"Plant response rating, Cupgrass, Woolly",[5]; [14],0
same,"Plant response rating, Cupgrass, Woolly",[5]; [15],0
same,"Plant response rating, Nutsedge, Yellow",[6]; [18],0
same,"Plant response rating, Nutsedge, Yellow",[6]; [17],0
same,"Plant response rating, Nutsedge, Yellow",[6]; [14],0
same,"Plant response rating, Nutsedge, Yellow",[6]; [15],0
same,"Plant response rating, Ragweed",[7]; [18],45
same,"Plant response rating, Ragweed",[7]; [17],60
same,"Plant response rating, Ragweed",[7]; [14],70
same,"Plant response rating, Ragweed",[7]; [15],85
same,"Plant response rating, Morningglory",[8]; [18],60
same,"Plant response rating, Morningglory",[8]; [17],65
same,"Plant response rating, Morningglory",[8]; [14],85
same,"Plant response rating, Morningglory",[8]; [15],90
same,"Plant response rating, Bermudagrass",[9]; [18],0
same,"Plant response rating, Bermudagrass",[9]; [17],0
same,"Plant response rating, Bermudagrass",[9]; [14],0
same,"Plant response rating, Bermudagrass",[9]; [15],0
same,"Plant response rating, Goosegrass",[10]; [18],0
same,"Plant response rating, Goosegrass",[10]; [17],0
same,"Plant response rating, Goosegrass",[10]; [14],0
same,"Plant response rating, Goosegrass",[10]; [15],0
same,"Plant response rating, Nightshade","[11]; 31 g ai/ha, scale 0 to 100, 0 no effect, 100 complete control",0
same,"Plant response rating, Nightshade",[11]; [19],0
same,"Plant response rating, Nightshade","[11]; 125 g ai/ha, scale 0 to 100",90
same,"Plant response rating, Nightshade","[11]; 250 g ai/ha, scale 0 to 100",90
same,"Plant response rating, Soybean",soybean (Glycine max); [18],0
same,"Plant response rating, Soybean",soybean (Glycine max); [17],60
same,"Plant response rating, Soybean",soybean (Glycine max); [14],90
same,"Plant response rating, Soybean",soybean (Glycine max); [15],90
